Data published in patent publication US12187726B1, “Imidazo[1,5-a]pyrido[4,3-e]pyrazines as CK2 inhibitors” (KING FAISAL UNIVERSITY, priority 2024, dated 2025).

Experiments:
[1] = system: MDA-MB-231 (breast) cancer cells; test: MTT in vitro cytotoxic activity assay, MDA-MB-231; format: cell-based; details: Homo sapiens, cells exposed for 96 hours, 50% inhibition of cell proliferation, read-out: Cytotoxicity activity IC50, MDA-MB-231 (breast)
Protocol: (§1) Compounds 1-16 were screened for their in vitro cytotoxic activity utilizing a 3-(4,5-dimethyl-thiazol-2-yl)-2,5-diphenyltetrazolium bromide (MTT) assay against selected cancer human cell lines consisting of PC3 (prostate), HCT116 (colon), A375 (melanoma), H1299 (lung), MIAPaCa-2 (pancreas), HL60 (leukemia), MCF7 (breast), MDA-MB-231 (breast) (T. Mosmann, J. Immunol. Meth., 1983, 65, 55-63). The cells were cultured at 37° C. in RMPI1640 medium supplemented with 10% fetal bovine serum, 50 IU/mL penicillin, and 50 μg/mL streptomycin in a 5% CO2 incubator. All cells were sub-cultured 3 times/week by trypsinisation. Viable cells were seeded and allowed to adhere for 12 hours before a test drug was added in 96-well plates at an initial density of 1.0×10^5 cells/mL. Tumor cell lines were separately exposed to various concentrations of the tested compounds followed by incubation at a temperature of 37° C. during 96 hours inside a medium of fresh RMPI 1640. Cells were subsequently incubated at 37° C. using MTT at 0.5 mg/mL during 4 hours. After removal of supernatant, formazan crystals were dissolved in isopropanol and the optical density was measured at 570 nm. CX-4945 was used as a positive control.

[2] = system: MIAPaCa-2 (pancreas) cancer cells; test: MTT in vitro cytotoxic activity assay, MIAPaCa-2; format: cell-based; details: Homo sapiens, MIA PaCa-2; cells exposed for 96 hours; 50% inhibition of cell proliferation; read-out: Cytotoxicity activity IC50, MIAPaCa-2 (pancreas)
Protocol: as §1

[3] = system: H1299 (lung) cancer cells; test: MTT in vitro cytotoxic activity assay, H1299; format: cell-based; details: Homo sapiens, NCI-H1299; cells exposed for 96 hours; 50% inhibition of cell proliferation; read-out: Cytotoxicity activity IC50, H1299 (lung)
Protocol: as §1

[4] = system: HCT116 (colon) cancer cells; test: MTT in vitro cytotoxic activity assay, HCT116; format: cell-based; details: Homo sapiens, HCT-116; cells exposed for 96 hours; 50% inhibition of cell proliferation; read-out: Cytotoxicity activity IC50, HCT116 (colon)
Protocol: as §1

[5] = system: MCF7 (breast) cancer cells; test: MTT in vitro cytotoxic activity assay, MCF7; format: cell-based; details: Homo sapiens, cells exposed for 96 hours, 50% inhibition of cell proliferation, read-out: Cytotoxicity activity IC50, MCF7 (breast)
Protocol: as §1

[6] = system: PC3 (prostate) cancer cells; test: MTT in vitro cytotoxic activity assay, PC3; format: cell-based; details: Homo sapiens; cells exposed for 96 hours; 50% inhibition of cell proliferation; read-out: Cytotoxicity activity IC50, PC3 (prostate)
Protocol: as §1

[7] = system: HL60 (leukemia) cancer cells; test: MTT in vitro cytotoxic activity assay, HL60; format: cell-based; details: Homo sapiens, HL-60; cells exposed for 96 hours; 50% inhibition of cell proliferation; read-out: Cytotoxicity activity IC50, HL60 (leukemia)
Protocol: as §1

[8] = target: T1, recombinant human CK2 (RRββ-holoenzyme) (Homo sapiens, UniProt P68400); test: CK2 Kinase Assay (33P-ATP, filter plate); format: biochemical; details: final ATP concentration 15 μM; 10 min at 30° C.; read-out: protein kinase CK2 IC50
T1 construct: purchased Millipore
Protocol: CK2 Kinase Assay was conducted using the protocol as described in Pierre F. et al; J. Med. Chem. 2011, 54, 635-654. The tested compounds in aqueous solution were added at a volume of 10 μL to a reaction mixture comprising 10 μL of assay dilution buffer (ADB; 20 mM MOPS, pH 7.2, 25 mM β-glycerol phosphate, 5 mM EGTA, 1 mM sodium orthovanadate, and 1 mM dithiothreitol), 10 μL of substrate peptide (RRRDDDSDDD, dissolved in ADB at a concentration of 1 mM), 10 μL of recombinant human CK2 (RRββ-holoenzyme, 25 ng dissolved in ADB; Millipore). Reactions were initiated by the addition of 10 μL of ATP solution (90% 75 mMMgCl2, 75 μM ATP (final ATP concentration: 15 μM) dissolved in ADB; 10% [γ-33P] ATP (stock 1mCi/100 μL; 3000 Ci/mmol (Perkin-Elmer) and maintained for 10 min at 30° C. The reactions were quenched with 100 μL of 0.75% phosphoric acid and then transferred to and filtered through a phosphor cellulose filter plate (Millipore). After washing each well five times with 0.75% phosphoric acid, the plate was dried under vacuum for 5 min and, following the addition of 15 μL of scintillation fluid to each well, the residual radioactivity was measured using a Wallac luminescence counter. The IC50 values were derived from eight concentrations of test inhibitors.

[9] = system: A375 (melanoma) cancer cells; test: MTT in vitro cytotoxic activity assay, A375; format: cell-based; details: Homo sapiens, A-375; cells exposed for 96 hours; 50% inhibition of cell proliferation; read-out: Cytotoxicity activity IC50, A375 (melanoma)
Protocol: as §1

T1 sequence (P68400 whole entry): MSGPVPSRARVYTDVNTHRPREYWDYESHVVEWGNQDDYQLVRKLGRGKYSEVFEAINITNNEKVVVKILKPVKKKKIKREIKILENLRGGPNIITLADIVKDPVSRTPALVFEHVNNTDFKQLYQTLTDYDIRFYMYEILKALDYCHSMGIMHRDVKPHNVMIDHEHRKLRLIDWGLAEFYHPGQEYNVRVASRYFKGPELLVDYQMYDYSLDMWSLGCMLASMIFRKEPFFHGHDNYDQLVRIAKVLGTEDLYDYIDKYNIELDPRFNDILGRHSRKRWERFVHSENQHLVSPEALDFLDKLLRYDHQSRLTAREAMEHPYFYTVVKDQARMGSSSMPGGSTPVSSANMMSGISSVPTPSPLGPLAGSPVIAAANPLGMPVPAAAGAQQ
T1 sequence (P67870 whole entry partner): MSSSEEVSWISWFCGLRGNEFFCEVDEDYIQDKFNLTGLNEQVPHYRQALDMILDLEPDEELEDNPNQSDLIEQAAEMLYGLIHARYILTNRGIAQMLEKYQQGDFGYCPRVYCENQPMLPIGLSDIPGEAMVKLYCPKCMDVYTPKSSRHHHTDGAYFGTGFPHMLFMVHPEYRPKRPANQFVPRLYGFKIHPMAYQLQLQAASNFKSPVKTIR

IC50 [8]: 36 nM
SMILES: O=C(O)c1ncn2c1c(Nc1cccc(Cl)c1)nc1ccncc12 [Compound 1, 4-((3-chlorophenyl)amino) imidazo[1,5-a]pyrido[4,3-e]pyrazine-3-carboxylic acid]
IC50 [1]: 5200 nM | IC50 [2]: 1100 nM | IC50 [3]: 2500 nM | IC50 [4]: 1800 nM | IC50 [5]: 5900 nM | IC50 [6]: 2100 nM | IC50 [7]: 2600 nM | IC50 [9]: 3300 nM
